Experimental findings from patent US20230183193A1, “4-DIFLUOROMETHYL BENZOYL AMIDES WITH HERBICIDAL ACTION” (BAYER CROPSCIENCE AKTIENGESELLSCHAFT, priority 2017, published 2023) are described below.

What all share (type): in vivo
In test [1] the test system is Viola tricolor. Description: Pre-emergence herbicidal action, VIOTR. Particulars: dosage 320 g/ha, scored visually after 3 weeks vs untreated controls. The text has this: (§1) 1. Pre-Emergence Herbicidal Action Against Harmful Plants Seeds of monocotyledonous and dicotyledonous weed plants and crop plants are laid out in sandy loam soil in wood-fiber pots and covered with soil. The compounds of the invention, formulated in the form of wettable powders (WP) or as emulsion concentrates (EC), are then applied to the surface of the covering soil in the form of an aqueous suspension or emulsion at a water application rate equating to […], with addition of 0.2% wetting agent. After the treatment, the pots are placed in a greenhouse and kept under good growth conditions for the trial plants. The damage to the test plants is scored visually after a test period of 3 weeks by comparison with untreated controls (herbicidal activity in percent (%): 100% activity=the plants have died, 0% activity=like control plants).
(§2) For comparison, the herbicidal activity of numerous compounds according to the invention was tested with the structurally closest compounds known from the documents WO 2011/035874, WO 2012/028579 and WO 2012/126932, by the pre- and post-emergence method.

Test [2] relates to Avena fatua. Put plainly: Post-emergence herbicidal action, AVEFA. Particulars: 80 g/ha, Table C. The procedure: (§3) Seeds of monocotyledonous and dicotyledonous weed and crop plants are laid out in sandy loam soil in wood-fiber pots, covered with soil and cultivated in a greenhouse under good growth conditions. 2 to 3 weeks after sowing, the test plants are treated at the one-leaf stage. The compounds of the invention, formulated in the form of wettable powders (WP) or as emulsion concentrates (EC), are then sprayed onto the green parts of the plants in the form of an aqueous suspension or emulsion at a water application rate equating to […], with addition of 0.2% wetting agent. After the test plants have been left to stand in the greenhouse under optimal growth conditions for about 3 weeks, the action of the preparations is assessed visually in comparison to untreated controls (herbicidal action in percent (%): 100% activity=the plants have died, 0% activity=like control plants). […] At the same time, inventive compounds leave Gramineae crops such as barley, wheat, rye, millet/sorghum, corn or rice virtually undamaged when applied post-emergence, even at high active compound dosages. In addition, some substances are also harmless to dicotyledonous crops such as soya, cotton, oilseed rape, sugar beet or potatoes. Some of the compounds according to the invention have high selectivity and are therefore suitable for controlling unwanted vegetation in agricultural crops by the post-emergence method. The data of Tables C and D below illustrate, in an exemplary manner, the […] herbicidal action of the compounds according to the invention, the herbicidal activity being stated in percent.
as §2

Test [3] relates to Alopecurus myosuroides. Put plainly: Post-emergence herbicidal action, ALOMY. Particulars: 80 g/ha, Table C. Here is the method:
as §3, §2

Test [4] concerns Cyperus serotinus. Description: Pre-emergence herbicidal action, CYPES. Particulars: dosage 320 g/ha, scored visually after 3 weeks vs untreated controls.
From the text: as §1, §2

The subject of test [5] is Viola tricolor. Put plainly: Post-emergence herbicidal action, VIOTR. Particulars: 80 g/ha, Table D. The procedure: as §3, §2
In test [6] the test system is Amaranthus retroflexus. Description: Pre-emergence herbicidal action, AMARE. Particulars: dosage 320 g/ha, scored visually after 3 weeks vs untreated controls.
From the text: as §1, §2

The test system of test [7] is ECHCG. Put plainly: Post-emergence herbicidal action, ECHCG. Particulars: 80 g/ha, Table C. Here is the method:
as §3

Test [8] concerns Matricaria inodora. Put plainly: Pre-emergence herbicidal action, MATIN. Particulars: dosage 320 g/ha, scored visually after 3 weeks vs untreated controls.
From the text: as §1, §2

Test [9] concerns Stellaria media. Description: Pre-emergence herbicidal action, STEME. Particulars: dosage 320 g/ha, scored visually after 3 weeks vs untreated controls.
From the text: as §1, §2

Test [10] concerns Setaria viridis. Put plainly: Post-emergence herbicidal action, SETVI. Particulars: 80 g/ha, Table C. Here is the method:
as §3, §2

The subject of test [11] is Pharbitis purpureum. Put plainly: Post-emergence herbicidal action, PHBPU. Particulars: 80 g/ha, Table D. The procedure: as §3, §2
The subject of test [12] is Alopecurus myosuroides. Description: Pre-emergence herbicidal action, ALOMY. Particulars: dosage 320 g/ha, scored visually after 3 weeks vs untreated controls.
From the text: as §1, §2

Test [13] relates to Avena fatua. Description: Pre-emergence herbicidal action, AVEFA. Particulars: dosage 320 g/ha, scored visually after 3 weeks vs untreated controls.
From the text: as §1, §2

The subject of test [14] is Stellaria media. Description: Post-emergence herbicidal action, STEME. Particulars: 80 g/ha, Table D. The procedure: as §3, §2
Test [15] relates to Abutilon theophrasti. Put plainly: Pre-emergence herbicidal action, ABUTH. Particulars: dosage 320 g/ha, scored visually after 3 weeks vs untreated controls.
From the text: as §1, §2

For test [16], the system named is Setaria viridis. Put plainly: Pre-emergence herbicidal action, SETVI. Particulars: dosage 320 g/ha, scored visually after 3 weeks vs untreated controls.
From the text: as §1, §2

Test [17] deals with Amaranthus retroflexus. Put plainly: Post-emergence herbicidal action, AMARE. Particulars: 80 g/ha, Table D. The procedure: as §3, §2
Test [18] relates to Abutilon theophrasti. Put plainly: Post-emergence herbicidal action, ABUTH. Particulars: 80 g/ha, Table D. The procedure:
as §3, §2

With `CCSc1c(C(F)F)ccc(C(=O)Nc2nnnn2CC)c1C` [Example 2-4], the “herbicidal activity VIOTR” value in [1] and in [5] was 100% in each case. The “herbicidal activity AVEFA” value in test [2] and in test [13] was 100% throughout. The “herbicidal activity ALOMY” value in [3] is recorded as 90%; in test [12] it was 100%. In addition, in test [4], the “herbicidal activity CYPES” value came to 100%. For the same compound, the “herbicidal activity AMARE” value in test [6] is 100%. Also, in test [7], the “Herbicidal activity ECHCG” value came out at 90%. Moreover, the “herbicidal activity MATIN” value in test [8] came to 100%. Moreover, the “Herbicidal activity STEME” value in [9] was 90%; in test [14] it was 100%. The “herbicidal activity SETVI” value in test [10] is 90%; in test [16], 100%. Further, the “Herbicidal activity PHBPU” value in [11] was 100%. Also, the “herbicidal activity ABUTH” value in test [15] came out at 100%.
With `CCc1c(C(=O)Nc2nnnn2CC)ccc(C(F)F)c1[S+](C)[O-]` (stereo not drawn) [Example 2-14], the “herbicidal activity VIOTR” value in [1] and in test [5] was 100% in each case. Further, the “herbicidal activity AVEFA” value amounted to 90% in [2] and 100% in test [13]. Besides, the “herbicidal activity AMARE” value in test [17] and in [6] was 100% throughout. Further, the “herbicidal activity CYPES” value in test [4] is on record as 100%. Besides, the “herbicidal activity ABUTH” value in test [18] and in [15] was 100% throughout. For the same compound, the “Herbicidal activity ECHCG” value in test [7] is 100%. In [8], the “herbicidal activity MATIN” value was determined as 100%. In addition, the “Herbicidal activity STEME” value in test [9] and in test [14] was 100% in each case. Besides, the “herbicidal activity SETVI” value in test [10] and in [16] was 100% throughout. Further, the “Herbicidal activity PHBPU” value in test [11] stood at 90%. Also, the “herbicidal activity ALOMY” value in test [12] was determined as 100%.
For the compound `CCn1nnnc1NC(=O)c1ccc(C(F)F)c(S(C)(=O)=O)c1F` [Example 2-39], the “herbicidal activity VIOTR” value in test [1] and in test [5] was 100% each time. Also, the “herbicidal activity AVEFA” value in test [2] was 80%; in [13], 100%. Also, the “herbicidal activity AMARE” value worked out at 90% in test [17] and 100% in test [6]. The “herbicidal activity CYPES” value in [4] stood at 100%. Also, the “herbicidal activity ABUTH” value in test [18] and in test [15] was 100% throughout. Also, in test [7], the “Herbicidal activity ECHCG” value is reported as 90%. The “herbicidal activity MATIN” value in [8] is on record as 100%. Further, the “Herbicidal activity STEME” value in [9] and in test [14] was 100% in each case. The “herbicidal activity SETVI” value in [10] and in test [16] was 100% each time. Moreover, in [11], the “Herbicidal activity PHBPU” value came out at 90%.
`CCn1nnnc1NC(=O)c1ccc(C(F)F)c([S+](C)[O-])c1Cl` (stereo not drawn) [Example 2-50]: the “herbicidal activity VIOTR” value in [1] and in [5] was 100% throughout. In addition, the “herbicidal activity AVEFA” value in test [2] and in test [13] was 100% each time. Moreover, the “herbicidal activity AMARE” value in test [17] and in test [6] was 100% each time. The “herbicidal activity CYPES” value in test [4] is 100%. Also, the “herbicidal activity ABUTH” value in test [18] and in test [15] was 100% each time. Moreover, the “Herbicidal activity ECHCG” value in test [7] is recorded as 90%. For the same compound, the “herbicidal activity MATIN” value in [8] was 100%. Also, the “Herbicidal activity STEME” value in test [9] and in test [14] was 100% throughout. Besides, the “herbicidal activity SETVI” value in test [10] and in [16] was 100% each time. Moreover, in test [11], the “Herbicidal activity PHBPU” value stood at 100%. Also, the “herbicidal activity ALOMY” value in test [12] was determined as 100%.
For `CCn1nnnc1NC(=O)c1ccc(C(F)F)c(S(C)(=O)=O)c1Cl` [Example 2-51], the “herbicidal activity VIOTR” value in [1] and in test [5] was 100% in each case. Besides, the figures for the “herbicidal activity AVEFA” value in test [2] and in test [13] were 90% and 100%, respectively. The “herbicidal activity AMARE” value in test [17] and in test [6] was 100% each time. Moreover, in test [4], the “herbicidal activity CYPES” value was determined as 90%. Besides, the “herbicidal activity ABUTH” value in [18] and in [15] was 100% each time. The “Herbicidal activity ECHCG” value in [7] is 90%. Moreover, in test [8], the “herbicidal activity MATIN” value stood at 100%. The results for the “Herbicidal activity STEME” value in [9] and in test [14] were 90% and 100%, respectively. In addition, the “herbicidal activity SETVI” value in [10] was determined as 90%; in test [16] it was 100%. In addition, in test [11], the “Herbicidal activity PHBPU” value is on record as 90%. The “herbicidal activity ALOMY” value in [12] worked out at 90%.
`Cc1c(C(=O)Nc2ncnn2C)ccc(C(F)F)c1[S+](C)[O-]` (stereo not drawn) [Example 4-2]: the “herbicidal activity VIOTR” value is 90% in test [1] and 100% in [5]. The “herbicidal activity AVEFA” value in test [2] and in test [13] was 80% in each case. The “herbicidal activity AMARE” value in [17] and in [6] was 100% each time. In [4], the “herbicidal activity CYPES” value came out at 80%. Also, the “herbicidal activity ABUTH” value in test [18] stood at 90%; in test [15], 100%. Moreover, in test [7], the “Herbicidal activity ECHCG” value is given as 100%. Also, the “herbicidal activity MATIN” value in [8] turned out to be 100%. Moreover, the figures for the “Herbicidal activity STEME” value in test [9] and in test [14] were 100% and 90%, respectively. In addition, the “herbicidal activity SETVI” value in test [10] is reported as 80%; in test [16], 100%. For the same compound, the “Herbicidal activity PHBPU” value in [11] is on record as 90%.
Take `CCSc1c(C(F)F)ccc(C(=O)Nc2nnnn2CC)c1F` [Example 2-40]: the “herbicidal activity VIOTR” value in test [1] and in test [5] was 100% each time. Further, the “herbicidal activity ALOMY” value in test [3] is 80%. Besides, the “herbicidal activity AMARE” value in test [17] and in test [6] was 100% in each case. The “herbicidal activity ABUTH” value in [18] and in test [15] was 100% in each case. Moreover, in test [7], the “Herbicidal activity ECHCG” value turned out to be 100%. The “herbicidal activity MATIN” value in [8] was found to be 100%. Further, the “Herbicidal activity STEME” value in [9] and in test [14] was 100% each time. In addition, the “herbicidal activity SETVI” value in test [10] and in test [16] was 100% in each case. Further, in [11], the “Herbicidal activity PHBPU” value is on record as 90%.
Regarding `CCc1c(C(=O)Nc2nnc(C)o2)ccc(C(F)F)c1SC` [Example 7-11], the “herbicidal activity VIOTR” value in test [1] and in test [5] was 100% in each case. The entries for the “herbicidal activity ALOMY” value in test [3] and in [12] were 90% and 80%, respectively. Further, the “herbicidal activity AMARE” value in test [17] came to 90%; in test [6], 100%. For the same compound, the “herbicidal activity CYPES” value in test [4] was 90%. The “herbicidal activity ABUTH” value in test [18] is on record as 90%; in test [15], 100%. Further, the “Herbicidal activity ECHCG” value in [7] amounted to 90%. Moreover, the figures for the “Herbicidal activity STEME” value in [9] and in [14] were 80% and 90%, respectively. Moreover, the “herbicidal activity SETVI” value in [10] came to 90%; in [16] it was 100%. For the same compound, in [11], the “Herbicidal activity PHBPU” value worked out at 90%. In addition, in test [13], the “herbicidal activity AVEFA” value was determined as 90%.
